Values of other authors as cited in patent US20050192267A1, “Use of targeted oxidative therapeutic formulation in treatment of viral diseases” (priority 2004, published 2005).

Legend:
Hepatitis C = details: chronic Hepatitis C; used alone
E. coli = details: increasing concentration of peroxide ex-vivo in rabbit or human blood
[1] = system: peroxide-sensitive E. coli; details: infused into the blood of infected rabbits

| SMILES | effectiveness of treatment (Hepatitis C) | direct bactericidal activity (E. coli) | bactericidal effect [1] |
| --- | --- | --- | --- |
| NC(=O)c1ncn([C@@H]2O[C@H](CO)[C@@H](O)[C@H]2O)n1 [Ribavirin, ribavirin] | does not appear to be effective |  |  |
| OO [hydrogen peroxide, Hydrogen peroxide] |  | no evidence of direct bactericidal activity | no bactericidal effect |
